3 compounds from US20240270762A1, “PENICILLIN-BINDING PROTEIN INHIBITORS” (priority 2021, published 2024) can be followed below.

In brackets after ≈: the same amount, converted by molar mass.

Assay [1] deals with P. aeruginosa (ΔmexAB-oprM). Description: Broth microdilution MIC in iron-depleted CAMHB (IDM). Conditions: Pseudomonas aeruginosa; iron-depleted CAMHB (IDM); […]; read-out: Minimum inhibitory concentration, P. aeruginosa ΔmexAB-oprM. It counts as cell-based. (In broth dilution the organism is exposed to a series of concentrations in liquid medium.)
For a further assay, the system named is P. aeruginosa CDC-0110. Description: microbe, parasite or virus in culture. The assay is classed as cell-based. Conditions: Pseudomonas aeruginosa, CDC0110, read-out: Minimum inhibitory concentration, P. aeruginosa CDC-0110.
The subject of assay [2] is B. humptydooensis ATCC BAA-2767. As to the kind of experiment: microbe, parasite or virus in culture. Conditions: Burkholderia humptydooensis, ATCCBAA2767, read-out: Minimum inhibitory concentration (MIC), B. humptydooensis ATCC BAA-2767. It counts as cell-based.
The next assay deals with N. gonorrhoeae WHO G. As to the kind of experiment: Liquid broth MIC in Fastidious broth. Conditions: Neisseria gonorrhoeae, read-out: Minimum Inhibitory Concentration, WHO G.
The next assay concerns N. gonorrhoeae WHO Z. Description: Liquid broth MIC in Fastidious broth. Conditions: Neisseria gonorrhoeae, read-out: Minimum Inhibitory Concentration, WHO Z.
A further assay relates to P. aeruginosa ATCC 35151. Description: microbe, parasite or virus in culture. The assay is classed as cell-based. Conditions: Pseudomonas aeruginosa, ATCC35151, read-out: Minimum inhibitory concentration, P. aeruginosa ATCC 35151.
Another assay concerns N. gonorrhoeae WHO X. Description: Liquid broth MIC in Fastidious broth. Conditions: Neisseria gonorrhoeae, read-out: Minimum Inhibitory Concentration, WHO X.
Another assay relates to A. baumannii CDC-0083. Description: microbe, parasite or virus in culture. It counts as cell-based. Conditions: Acinetobacter baumannii, CDC0083, read-out: MIC, A. baumannii CDC-0083.
The test system of assay [3] is N. gonorrhoeae ATCC 49226. Description: Liquid broth MIC in Fastidious broth. Conditions: Neisseria gonorrhoeae, ATCC49226, read-out: Minimum Inhibitory Concentration, ATCC 49226.

Regarding `O=C(NCCCN1CCN(C(=O)NC(C(=O)N[C@H]2Cc3ccc(F)c(C(=O)O)c3OB2O)c2cc(F)c(O)c(O)c2Cl)C(=O)C1=O)c1ccc(O)c(Cl)c1` (stereo partly drawn) [Example 305, (3R)-3-(2-(4-(3-(3-chloro-4-hydroxybenzamido)propyl)-2,3-dioxopiperazine-1-carboxamido)-2-(2-chloro-5-fluoro-3,4-dihydroxyphenyl)acetamido)-7-fluoro-2-hydroxy-3,4-dihydro-2H-benzo[e][1,2]oxaborinine-8-carboxylic acid], the MIC in assay [1] was less than 1 µg/mL; in the assay with P. aeruginosa CDC-0110, less than 1 µg/mL; in assay [2], 2 to 4 µg/mL (≈ 2.52 to 5.04 µM); in the assay with N. gonorrhoeae WHO G it was 16 to 32 µg/mL (≈ 20.1 to 40.3 µM); in the assay with N. gonorrhoeae WHO Z, greater than 64 µg/mL; with P. aeruginosa ATCC 35151 it was less than 1 µg/mL. Moreover, the MIC was greater than 64 µg/mL in the assay with N. gonorrhoeae WHO X, 2 to 4 µg/mL (≈ 2.52 to 5.04 µM) with A. baumannii CDC-0083 and 16 to 32 µg/mL (≈ 20.1 to 40.3 µM) in [3].
For `O=C(NCCCN1CCN(C(=O)NC(C(=O)N[C@H]2Cc3ccc(F)c(C(=O)O)c3OB2O)c2cc(F)c(O)c(O)c2Cl)C(=O)C1=O)c1ccc(O)c(F)c1F` (stereo partly drawn) [Example 306, (3R)-3-(2-(2-chloro-5-fluoro-3,4-dihydroxyphenyl)-2-(4-(3-(2,3-difluoro-4-hydroxybenzamido)propyl)-2,3-dioxopiperazine-1-carboxamido)acetamido)-7-fluoro-2-hydroxy-3,4-dihydro-2H-benzo[e][1,2]oxaborinine-8-carboxylic acid], the MIC in assay [1] was less than 1 µg/mL; with P. aeruginosa CDC-0110 it was less than 1 µg/mL; in assay [2] it was 2 to 4 µg/mL (≈ 2.51 to 5.03 µM); with N. gonorrhoeae WHO G, 16 to 32 µg/mL (≈ 20.1 to 40.2 µM); with N. gonorrhoeae WHO Z, greater than 64 µg/mL; in the assay with P. aeruginosa ATCC 35151, less than 1 µg/mL. Also, the values for the MIC (in the assay on N. gonorrhoeae WHO X; with A. baumannii CDC-0083; in assay [3]) were greater than 64 µg/mL, 2 to 4 µg/mL (≈ 2.51 to 5.03 µM) and 16 to 32 µg/mL (≈ 20.1 to 40.2 µM), respectively.
On to `O=C(NCCCN1CCN(C(=O)NC(C(=O)N[C@H]2Cc3ccc(F)c(C(=O)O)c3OB2O)c2cc(F)c(O)c(O)c2Cl)C(=O)C1=O)c1ccc(O)cc1O` (stereo partly drawn) [Example 307, (3R)-3-(2-(2-chloro-5-fluoro-3,4-dihydroxyphenyl)-2-(4-(3-(2,4-dihydroxybenzamido)propyl)-2,3-dioxopiperazine-1-carboxamido)acetamido)-7-fluoro-2-hydroxy-3,4-dihydro-2H-benzo[e][1,2]oxaborinine-8-carboxylic acid], for which the MIC is less than 1 µg/mL in assay [1]; less than 1 µg/mL in the assay with P. aeruginosa CDC-0110; 8 to 16 µg/mL (≈ 10.3 to 20.6 µM) in assay [2]; 16 to 32 µg/mL (≈ 20.6 to 41.2 µM) in the assay on N. gonorrhoeae WHO G; greater than 64 µg/mL in the assay on N. gonorrhoeae WHO Z; less than 1 µg/mL in the assay on P. aeruginosa ATCC 35151. The MIC was greater than 64 µg/mL in the assay with N. gonorrhoeae WHO X, less than 1 µg/mL in the assay with A. baumannii CDC-0083 and 16 to 32 µg/mL (≈ 20.6 to 41.2 µM) in [3].
